According to article PMC8950868, “Identifying Human PTP1B Enzyme Inhibitors from Marine Natural Products: Perspectives for Developing of Novel Insulin-Mimetic Drugs” (Pharmaceuticals, 2022):

What was measured:
[1] = target: T1, PTP1B (Homo sapiens, UniProt P18031); experiment: Determination of the mechanism of inhibition on PTP1B (KM, Vmax, Lineweaver-Burk, secondary plots); type: biochemical; settings: for α: Ki′ = αKi; for Ki′: from 1/Vmax versus inhibitor concentration (Ki′ = αKi); for Ki: from KM/Vmax versus inhibitor concentration
T1 construct: human recombinant PTP1B (1–302)
T1 sequence (P18031 1-302): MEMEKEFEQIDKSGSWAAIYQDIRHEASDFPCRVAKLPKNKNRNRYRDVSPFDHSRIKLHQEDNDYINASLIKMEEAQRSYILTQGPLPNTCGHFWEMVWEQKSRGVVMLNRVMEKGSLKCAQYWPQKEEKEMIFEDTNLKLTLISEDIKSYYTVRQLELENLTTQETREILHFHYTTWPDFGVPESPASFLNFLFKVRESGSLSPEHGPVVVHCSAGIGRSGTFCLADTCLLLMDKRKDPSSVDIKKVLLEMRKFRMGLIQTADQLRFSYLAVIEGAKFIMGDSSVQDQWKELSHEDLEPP
Method: The inhibitory mechanism of tested compounds was determined studying the dependence between the main kinetics parameters (KM and Vmax) and the inhibitors concentrations. Briefly, KM and Vmax values were calculated measuring the hydrolysis rate of PTP1B in the absence/presence of different inhibitor concentrations, while increasing substrate content. Data obtained were fitted using Michaelis-Menten equation and a non-linear fitting software. Then, data were analysed using the double reciprocal plot (Lineweaver-Burk method).
Figure 5 Kinetic characterization of 3 as PTP1B inhibitor. […] Dependence of main kinetic parameters KM (A) and Vmax (B) from the concentration of compound 3. Lineweaver-Burk plot (C). Bars represent the standard deviations of the means from at least three independent measurements (if not present, they are within the symbol’s size). […] E, free enzyme; S, substrate; ES, enzyme-substrate complex; EI, enzyme-inhibitor complex; ESI the enzyme-substrate-inhibitory ternary complex; Ks, dissociation constant of the enzyme-substrate complex; Ki, dissociation constant of EI complex; αKs and αKi, dissociation constant of enzyme-substrate-inhibitor complex (α > 1).
Figure 6 Secondary plots. KM/Vmax (A) and 1/Vmax (B) versus the inhibitor concentration, respectively. The intercept of straight line with the “x” axis in Panel A, represents the Ki value, while the intercept of straight line with the “x” axis in Panel B represents the Ki′ value (Ki′ = αKi).
Figure 7 Kinetic characterization of 8a as PTP1B inhibitor. […] Dependence of KM (A) and Vmax (B) from the inhibitor concentration. Lineweaver-Burk graph (C). Bars represent the standard deviations of the means from at least three independent measurements (if not present, they are within the symbol’s size). Secondary plots: KM/Vmax (D) and 1/Vmax (E) versus the inhibitor concentration, respectively. The intercept of straight line with the “x” axis in Figure D represents the Ki value, while the intercept of straight line with the “x” axis in Figure E represents the Ki′ value (Ki′ = αKi).

[2] = target: T2, human recombinant PTP1B (1–302) (Homo sapiens, UniProt P18031); experiment: PTP1B enzymatic assay (p-NPP hydrolysis; preliminary screening and IC50); type: biochemical; settings: for Effect on PTP1B activity in preliminary screening: 20 µM of each compound, 30 min; for IC50: 2.5 mM p-NPP, pH 7.0, 37 °C, mean ± SD (n = 3), read-out: IC50 values determined on PTP1B
T2 construct: human recombinant PTP1B (1–302)
T2 sequence (P18031 1-302): T1 sequence (P18031 1-302)
Method: We performed enzymatic assays as previously described. For each assay, an aliquot of human recombinant PTP1B (1–302) was added in the assay buffer (0.075 M β,β-dimethylglutarate pH 7.0 containing 1 mM EDTA, 0.1 mM DTT and a p-nitrophenylphosphate (p-NPP) (Chemcruz, Santa Cruz Biotechnology (Santa Cruz, CA, USA)). The reactions were performed at 37 °C in a final volume of 1 mL. After adequate time (30 min) of incubation, the reactions were stopped adding 2 mL of 0.1 M KOH in each sample. The released amount of p-nitrophenol, product of the reaction, was determined by measuring the absorbance at 400 nm in a 1 cm pathlength cuvette.
The IC50 value of compounds against PTP1B was determined by measuring the hydrolysis rate of the enzyme in the presence of a fixed substrate concentration (2.5 mM p-NPP) and increasing inhibitor concentrations (generally 14–16 different concentrations). Each test was carried out in triplicate. Experimental data were normalized respect to control samples and then fitted using a non-linear fitting software, using the following equation: Vi/V0=Max−Min/1+x/IC50^slope+Min where the Vi/V0 value represents the relative activity calculated in presence of each inhibitor concentration; the maximum and minimum value of the activity are represented by “Max” and “Min”, respectively; “x” is the concentration of the inhibitor; IC50 is the inhibitor concentration able to decrease the enzymatic activity up to 50%; “slope” represents the slope of the curve in the transition zone.
Figure 2 Preliminary screening assay on PTP1B. All assays were started by diluting an aliquot of PTP1B in the assay solution containing substrate alone (control test) or substrate and an aliquot of each compound (20 µM, final concentration). After 30 min, the reactions were stopped by adding a concentrated KOH solution. The enzyme activity was determined by measuring the amount of p-nitrophenol that was released in each sample using a spectrophotometer. Data obtained were normalized respect to control sample. […] Statistical analysis was carried out using one way ANOVA followed by Tukey’s HSD test for pairwise comparisons. Statistics have been drawn on raw data and compare samples to control (Ctr). * p < 0.05; ** p < 0.01.
Figure 3 Determination of the IC50 values with compounds 3, 8a, 8b, 9a and 9b. An aliquot of PTP1B enzyme was diluted in the presence of increasing concentration of the compounds. The activity of PTP1B was determined by measuring the absorbance of the sample at 400 nm, using a spectrophotometer. Data obtained were normalized respect to the control sample and analysed using a non-linear fitting software.

[3] = tested on: C2C12 cells; experiment: Glucose uptake assay (2-NBDG, flow cytometry); type: cell-based, murine; settings: 20 µM compound alone, 30 min, then 2-NBDG 3 h
Method: To evaluate glucose uptake, C2C12 cells were grown until 80% confluence and then incubated in starvation medium for 24 h. After this time, cells were stimulated with 10 nM insulin (Humalog Lispro, Eli Lilly), 20 µM compound 3 or 3-insulin combination for 30 min and then incubated in the presence of 40 µM of 2-NBDG (Invitrogen) for 3 h. Then, cells were washed with PBS, tripsinized, pelleted by centrifugation (1000× g for 5 min), then suspended in 500 µL of PBS. The amount of 2-NBDG uploaded by cells was determined analysing cells by using a flow cytometer apparatus (FACSCanto II, BD Biosciences, San Jose, CA, USA). For each sample 1 × 10^4 events were acquired. Data obtained were then analysed with FlowJo software. Cells autofluorescence values were determined before sample analysis and subtracted to each sample.
Figure 13 Glucose uptake assay. C2C12 cells were treated with 10 nM insulin, 20 µM compound 3 or 3-insulin combination and then incubated in the presence of 2-NBDG for 3 h. After that, the glucose uptake was analysed by flow cytometry analysis. Each test was carried out in quadruplicate. For each test, 10,000 events at least were analysed. (A), quantification of the mean fluorescence values of C2C12 cells. Data represents the mean value ± SD (n = 4). […] (B), representative cell fluorescence distribution obtained by analysing data with the FlowJo software. […]

CCCCCCCCCCCCCCC(OP(=O)(O)O)C(O)CCCO (stereo not shown) [Compound 3]
Inhibitory mechanism on PTP1B [1]: linear mixed-type inhibitor
α [1]: 1.4 ± 0.2
Ki′ [1]: 9.4 ± 0.6 µM
Ki [1]: 6.6 ± 0.8 µM
Effect on PTP1B activity in preliminary screening [2]: reducing PTP1B activity
IC50 [2]: 6.7 ± 3.3 µM
Glucose uptake (2-NBDG) [3]: incorporated more glucose than insulin-stimulated C2C12 cells

CCCCC[C@@H](OP(=O)(O)O)[C@@H](O)CC[C@H](CCCC)OC(C)=O (relative stereo) [Compound 8a]
Inhibitory mechanism on PTP1B [1]: mixed type inhibitor
α [1]: 1.6 ± 0.1
Ki′ [1]: 5.4 ± 0.2 µM
Ki [1]: 3.3 ± 0.4 µM
Effect on PTP1B activity in preliminary screening [2]: reducing PTP1B activity
IC50 [2]: 16 ± 2 µM
